Data set [1] deals with diastolic blood pressure (DBP). The note with it: dogs, i.v.; data from Leonardi et al., J Pharmacol Exp Ther 281, 1272-1283 (1997); cited from earlier work.
A further data set deals with T1, α1L adrenoceptor subtype (Oryctolagus cuniculus, UniProt O02824).
T1 sequence (O02824 1-466): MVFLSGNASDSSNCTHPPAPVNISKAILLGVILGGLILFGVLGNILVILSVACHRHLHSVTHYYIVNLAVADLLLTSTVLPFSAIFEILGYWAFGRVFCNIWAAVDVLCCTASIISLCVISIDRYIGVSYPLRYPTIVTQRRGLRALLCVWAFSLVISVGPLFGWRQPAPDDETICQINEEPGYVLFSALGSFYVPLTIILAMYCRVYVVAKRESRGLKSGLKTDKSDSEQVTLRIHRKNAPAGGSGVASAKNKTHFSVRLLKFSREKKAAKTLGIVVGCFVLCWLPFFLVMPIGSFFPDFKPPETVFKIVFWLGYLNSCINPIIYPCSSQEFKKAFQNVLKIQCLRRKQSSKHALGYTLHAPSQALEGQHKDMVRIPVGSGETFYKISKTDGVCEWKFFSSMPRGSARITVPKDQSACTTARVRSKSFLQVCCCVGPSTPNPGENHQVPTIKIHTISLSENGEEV
The experiment in a line: Functional affinity for α1L-adrenoceptors: noradrenaline-induced contractions of rabbit aorta pretreated with chloroethylclonidine. The note with it: rabbit aorta rings pretreated with chloroethylclonidine, NA-induced contractions, Schild plot or apparent Kb. The format is biochemical. Here is the method: Adult male New Zealand rabbits were sacrificed by cervical dislocation. The aorta was removed, placed in Krebs-Henseleit buffer and dissected free of adhering tissue. […] After washout of NA and re-equilibration of the tissue (45 minutes), the drug to be tested was added and, after 30 minutes, a second NA-cumulative-concentration/response curve constructed. Each antagonist concentration was tested using 2-3 aortic rings from different rabbits.

Data set [2] has as its system urethral contractions (UC) induced by noradrenaline (NA). The note with it: dogs, i.v.; data from Leonardi et al., J Pharmacol Exp Ther 281, 1272-1283 (1997); cited from earlier work.
Data set [3] concerns diastolic blood pressure (DBP). Briefly: Effects on blood pressure in dogs after i.v. administration. Type of data set: in vivo. The following applies: anaesthetised male beagle dogs, dose inducing a 25% decrease in diastolic blood pressure. Here is the method:
(§1) The experiments were performed according to the method of Imagawa et al. (J. Pharmacol. Methods 22, 103-111 (1989)), with substantial modifications, as follows: adult male beagle dogs, weighing 8-10 kg, were anaesthetised with pentobarbital sodium (30 mg/kg i.v. and 2 mg/kg/h i.v.), intubated and spontaneously ventilated with room air. In order to monitor systemic blood pressure (BP), a polyethylene (PE) catheter was introduced into the aortic arch through the left femoral artery. A collateral of the left femoral vein was cannulated for infusion of anaesthetic, and the right femoral vein was cannulated for administration of compounds. For intraarterial (i.a.) injection of noradrenaline (NA), a PE catheter was introduced into the lower portion of the abdominal aorta via the right external iliac artery. Through such procedure, NA was selectively distributed to the lower urinary tract. A paramedian vertical suprapubic incision extending from the base of the pelvis to the mid-abdominal region was made and the bladder and the prostate were exposed. The bladder was manually emptied with a syringe. Prostatic urethral pressure was monitored with a Mikro-tip catheter (5F) introduced into the bladder via the external urethral meatus, and withdrawn until the pressure transducer was positioned in the prostatic region of the urethra. A ligature was secured between the neck of the bladder and urethra to isolate the response of the latter and to avoid any interaction with the bladder. Another ligature was put around the Mikro-tip catheter at the external meatus, to secure the catheter itself.
After a stabilising period following the surgical procedure (30 minutes), in which arterial and prostatic urethral pressures were continuously monitored as basal values, i.a. administration of NA was made at intervals of 20 minutes.
The doses of NA chosen were such to produce an increase of at least 100% in urethral pressure. The test compounds were administered i.v. in a cumulative manner with intervals of 15-20 minutes between administrations. […]

Data set [4] concerns urethral contractions (UC) induced by noradrenaline (NA). The experiment in a line: Effects on urethral contractions induced by noradrenaline injection in dogs after i.v. administration. The format is in vivo, beagle dogs. The following applies: for ED50: Canis lupus familiaris, iv, anaesthetised male beagle dogs, i.v., dose inhibiting by 50% the NA-induced increase in urethral pressure, read-out: UC ID50 NA; for Ratio (DBP/UC): ratio between the active doses DBP ED25 / UC ID50, dogs i.v. Here is the method:
as §1, with “cathe[…])” for “catheter (5F)”, “itself. […] In order to compare the effects of the administered compound, dose/response curves (log dose transformation) were constructed by computing, at the peak effect, the percent decrease in diastolic blood pressure and percent inhibition of the increase in urethral pressure induced by NA.” for “itself.”

Where two headings read alike, the source gives them in different places.

Take `COc1ccccc1N1CCN(CCCNC(=O)c2cccc3c(=O)c(C)c(-c4ccccc4)oc23)CC1` [Compound A]: the “DBP ED25” value in data set [1] is listed as 243 µg/kg. The pKb (as a rule, the negative decadic logarithm of the Kb, by convention in mol/L) at α1L adrenoceptor subtype was 8.64. For the same compound, the “UC ID50 NA” value in data set [2] was 2.4 µg/kg.
With `COc1ccc(Cl)cc1N1CCN(CCCNC(=O)c2csc3c(=O)cc(-c4ccccc4)oc23)CC1` [Example 1, N-{3-[4-(5-Chloro-2-methoxyphenyl)-1-piperazinyl]-propyl}-7-oxo-5-phenyl-7H-thieno[3,2-b]pyran-3-carboxamide], the “DBP ED25” value in data set [3] was found to be 280 µg/kg. Also, in data set [4], the ED50 is 5.3 µg/kg and the “Ratio (DBP/UC)” value is 52.8.
On the same counts, the results for `COc1ccccc1N1CCN(CCCNC(=O)c2csc3c(=O)cc(-c4ccccc4)oc23)CC1` [Example 2, N-{3-[4-(2-Methoxyphenyl)-1-piperazinyl]-propyl}-7-oxo-5-phenyl-7H-thieno[3,2-b]pyran-3-carboxamide] are 35.5 µg/kg, 1.8 µg/kg and 19.7.
On the same counts, the results for `O=C(NCCCN1CCN(c2ccccc2OCC(F)(F)F)CC1)c1csc2c(=O)cc(-c3ccccc3)oc12` [Example 5, 7-Oxo-5-phenyl-N-{3-[4-[2-(2,2,2-trifluoroethoxy)-phenyl]-1-piperazinyl]-propyl}-7H-thieno[3,2-b]pyran-3-carboxamide] are greater than 1000 µg/kg, 2.7 µg/kg and greater than 370.

These data come from EP1200445B1, “THIENOPYRANECARBOXAMIDE DERIVATIVES” (RECORDATI INDUSTRIA CHIMICA E FARMACEUTICA S.p.a., priority 1999, dated 2001).
